# Counter-ions that a name gives are not always drawn.
# Target: T1, recombinant active human PAI-1 (Homo sapiens (Human), UniProt P05121)
# Assay: pH dependence of PAI-1 inhibition, fluorogenic uPA (or tPA) assay
# Format: biochemical
# Settings: pH 6.5 to 8.5
# T1 sequence (P05121 24-402): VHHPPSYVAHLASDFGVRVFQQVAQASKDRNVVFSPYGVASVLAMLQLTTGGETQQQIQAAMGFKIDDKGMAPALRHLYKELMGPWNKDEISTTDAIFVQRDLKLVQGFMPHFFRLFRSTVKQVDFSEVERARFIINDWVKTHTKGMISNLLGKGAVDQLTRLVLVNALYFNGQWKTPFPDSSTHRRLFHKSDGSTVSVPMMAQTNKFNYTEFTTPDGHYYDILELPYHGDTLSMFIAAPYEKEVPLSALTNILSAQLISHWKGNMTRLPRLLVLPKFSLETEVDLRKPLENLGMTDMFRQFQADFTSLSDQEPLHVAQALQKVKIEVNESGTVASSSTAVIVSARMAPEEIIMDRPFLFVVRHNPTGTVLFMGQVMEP
row,effect of pH on PAI-1 inhibition (in words),Molecule
1,increased with increasing pH,CCN(CCN(CC)S(=O)(=O)c1ccc(OC)c(OC)c1)S(=O)(=O)c1ccc(OC)c(OC)c1 [CDE-030]
2,increased with increasing pH,COc1ccc(S(=O)(=O)NCCNS(=O)(=O)c2ccc(OC)c(OC)c2)cc1OC [CDE-029]

# Same assay, conditions: pH 7.5 (FIG. 8); additional experiments
row,PAI-1 inhibitory efficacy (in words),Molecule
1,effective PAI-1 inhibitors,O=C(OC[C@H]1O[C@@H](OC(=O)c2cc(O)c(O)c(O)c2)[C@H](OC(=O)c2cc(O)c(O)c(O)c2)[C@@H](OC(=O)c2cc(O)c(O)c(O)c2)[C@H]1OC(=O)c1cc(O)c(O)c(O)c1)c1cc(O)c(O)c(O)c1 [CDE-004]
2,effective PAI-1 inhibitors,O=C(OC[C@H]1OC(OC(=O)c2cc(O)c(O)c(O)c2)[C@H](OC(=O)c2cc(O)c(O)c(O)c2)[C@@H](OC(=O)c2cc(O)c(O)c(O)c2)[C@@H]1OC(=O)c1cc(O)c(O)c(O)c1)c1cc(O)c(O)c(O)c1 (some centres unmarked) [CDE-001]
3,effective inhibitors of PAI-1,CCN(CCN(CC)S(=O)(=O)c1ccc(OC)c(OC)c1)S(=O)(=O)c1ccc(OC)c(OC)c1 [CDE-030]
4,not inhibitory,O=C(OC[C@H]1O[C@@H](OC(=O)c2cc(OCc3ccccc3)c(OCc3ccccc3)c(OCc3ccccc3)c2)[C@H](OC(=O)c2cc(OCc3ccccc3)c(OCc3ccccc3)c(OCc3ccccc3)c2)[C@@H](OC(=O)c2cc(OCc3ccccc3)c(OCc3ccccc3)c(OCc3ccccc3)c2)[C@H]1OC(=O)c1cc(OCc2ccccc2)c(OCc2ccccc2)c(OCc2ccccc2)c1)c1cc(OCc2ccccc2)c(OCc2ccccc2)c(OCc2ccccc2)c1 [CDE-006]
5,effective PAI-1 inhibitors,O=C(OC[C@H]1O[C@H](OC(=O)c2cc(O)c(O)c(O)c2)[C@H](OC(=O)c2cc(O)c(O)c(O)c2)[C@@H](OC(=O)c2cc(O)c(O)c(O)c2)[C@H]1OC(=O)c1cc(O)c(O)c(O)c1)c1cc(O)c(O)c(O)c1 [CDE-003]
6,not inhibitory,O=C(OC[C@H]1O[C@H](OC(=O)c2cc(OCc3ccccc3)c(OCc3ccccc3)c(OCc3ccccc3)c2)[C@H](OC(=O)c2cc(OCc3ccccc3)c(OCc3ccccc3)c(OCc3ccccc3)c2)[C@@H](OC(=O)c2cc(OCc3ccccc3)c(OCc3ccccc3)c(OCc3ccccc3)c2)[C@H]1OC(=O)c1cc(OCc2ccccc2)c(OCc2ccccc2)c(OCc2ccccc2)c1)c1cc(OCc2ccccc2)c(OCc2ccccc2)c(OCc2ccccc2)c1 [CDE-007]
7,effective inhibitors of PAI-1,COc1ccc(S(=O)(=O)NCCNS(=O)(=O)c2ccc(OC)c(OC)c2)cc1OC [CDE-029]

# Target: T1, recombinant active human PAI-1
# Assay: β-trypsin screening assay for PAI-1 inhibitors;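 also: fluorogenic readout with PAI-1 and β-trypsin at 10:1 molar ratio, untreated PAI-1 wells set as 100% PAI-1 activity and β-trypsin alone as 0%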
# Format: biochemical
# Settings: not given
row,Molecule,screening hit: restoration of β-trypsin activity
1,CN1[C@@H]2CC[C@H]1C[C@@H](OC(=O)c1c[nH]c3ccccc13)C2.Cl [TROPISETRON HCl],demonstrate PAI-1 inhibitor activity
2,CNCC[C@H](Oc1cccc2ccccc12)c1cccs1 [DULOXETINE HCl],demonstrate PAI-1 inhibitor activity

# Same assay, conditions: 10 μM compound; hit = more than 3 standard deviations above control
row,Molecule,screening hit: restoration of β-trypsin activity
1,Oc1ccc2c(c1)OC[C@]1(O)Cc3cc(O)c(O)cc3[C@H]21 [BRAZILIN],demonstrate PAI-1 inhibitor activity
2,COc1ccc2[nH]cc(C3=CCNCC3)c2c1 [RU 24969],demonstrate PAI-1 inhibitor activity
3,C=CC1=C(C(=O)O)N2C(=O)[C@@H](NC(=O)C(NC)c3csc(N)n3)[C@H]2SC1 (some centres unmarked),demonstrate PAI-1 inhibitor activity
4,CC1=C(O)C(=O)C=C2C1=CC=C1[C@@]2(C)CC[C@@]2(C)[C@@H]3C[C@](C)(C(=O)O)CC[C@]3(C)CC[C@]12C [CELASTROL],demonstrate PAI-1 inhibitor activity
5,"CCOC(=O)C1(O)Oc2cc(OC)cc(OC)c2C(=O)C1c1ccccc1 (centres unmarked) [2-ETHOXYCARBONYL-2-HYDROXY-5,7-DIMETHOXYISOFLAVANONE]",demonstrate PAI-1 inhibitor activity
6,c1ccc(-c2ccc(C(c3ccccc3)n3ccnc3)cc2)cc1 (centres unmarked) [BIFONAZOLE],demonstrate PAI-1 inhibitor activity
7,CC12CCC3C(CCC4(O)CC(O)CCC34/C=N/NC(N)=O)C1(O)CCC2C1=CC(=O)OC1 (centres unmarked) [STROPHANTHIDIN SEMICARBAZIDE],demonstrate PAI-1 inhibitor activity
8,Oc1cc2c(cc1O)C1c3ccc(O)c(O)c3OCC1(O)C2 (centres unmarked) [HAEMATOXYLIN],demonstrate PAI-1 inhibitor activity
9,O=c1cnn([C@H]2O[C@@H](CO)[C@H](O)[C@@H]2O)c(=O)[nH]1 (stereo in doubt) [6-AZAURIDINE],demonstrate PAI-1 inhibitor activity
10,CCOP(=S)(OCC)SCSCC [PHORATE],demonstrate PAI-1 inhibitor activity
11,COc1cc(OC)c2c(c1)O[C@H](c1ccc(OC)c(OC)c1)[C@@H](O)C2,demonstrate PAI-1 inhibitor activity
12,NCCc1cc(O)c(O)cc1O [OXIDOPAMINE HYDROCHLORIDE],demonstrate PAI-1 inhibitor activity
13,CC1=NCCc2c1[nH]c1cc(O)ccc21.Cl [HARMALOL HYDROCHLORIDE],demonstrate PAI-1 inhibitor activity
14,Cc1cc(C(C)(C)C)cc(C)c1CC1=NCCN1 [XYLOMETAZOLINE HYDROCHLORIDE],demonstrate PAI-1 inhibitor activity
15,Oc1c(Cl)cc(Cl)cc1Sc1cc(Cl)cc(Cl)c1O [BITHIONOL],demonstrate PAI-1 inhibitor activity
16,"c1ccc2c(Cc3c[nH]c4ccccc34)c[nH]c2c1 [3,3′-DIINDOLYLMETHANE]",demonstrate PAI-1 inhibitor activity
17,"O=C(OC1Cc2c(O)cc(O)cc2O[C@@H]1c1cc(O)c(O)c(O)c1-c1c([C@@H]2Oc3cc(O)cc(O)c3C[C@@H]2OC(=O)c2cc(O)c(O)c(O)c2)cc(O)c(O)c1O)c1cc(O)c(O)c(O)c1 (some centres unmarked) [2′,2′-BISEPIGAL[…]]",demonstrate PAI-1 inhibitor activity
18,O=c1c(O)cccc2c([C@H]3Oc4cc(O)cc(O)c4C[C@H]3O)cc(O)c(O)c12 [THEAFLAVANIN],demonstrate PAI-1 inhibitor activity
19,NCCC(=O)N[C@@H](Cc1c[nH]cn1)C(=O)O [CARNOSINE],demonstrate PAI-1 inhibitor activity

# Next, values leading:
row,screening hit: restoration of β-trypsin activity,Molecule
1,demonstrate PAI-1 inhibitor activity,C[N+](C)(C)CCOC(N)=O [CARBACHOL]
2,demonstrate PAI-1 inhibitor activity,CCN(CC)CCOC(=O)C(c1ccccc1)C1CCCCC1 (centres unmarked) [DROFENINE HYDROCHLORIDE]
3,demonstrate PAI-1 inhibitor activity,CCc1oc2ccccc2c1C(=O)c1cc(Br)c(O)c(Br)c1 [NSC 85433]
4,demonstrate PAI-1 inhibitor activity,CC(C)(C)NC[C@H](O)c1ccc(O)c(CO)c1 [LEVALBUTEROL HYDROCHLORIDE]
5,demonstrate PAI-1 inhibitor activity,Cc1cc(O)c(C=O)c2c1C(=O)Oc1c(C)c(O)c3c(c1O2)C(O)OC3=O (centres unmarked) [NORSTICTIC ACID]
6,demonstrate PAI-1 inhibitor activity,SAPPANONE A DIMETHYL ETHER
7,demonstrate PAI-1 inhibitor activity,COc1ccccc1OCCNCC(O)COc1cccc2[nH]c3ccccc3c12 (centres unmarked) [Carvedilol]
8,demonstrate PAI-1 inhibitor activity,CCOc1nc2cccc(C(=O)OC(C)OC(=O)OC3CCCCC3)c2n1Cc1ccc(-c2ccccc2-c2nn[nH]n2)cc1 (centres unmarked) [CANDESARTAN CILEXTIL]
9,demonstrate PAI-1 inhibitor activity,CC(C)=CCCC1(C)C=Cc2c(O)c3c(c(CC=C(C)C)c2O1)OC12C(=CCCC1C(C)(C)O[C@@]2(C/C=C(\C)C(=O)O)C(=O)O)C3=O (some centres unmarked) [GARCINOLIC ACID]
10,demonstrate PAI-1 inhibitor activity,CS(=O)(=O)O.Oc1ccc(C2CNCCc3c2cc(O)c(O)c3Cl)cc1 (centres unmarked) [FENOLDOPAM MESYLATE]
11,demonstrate PAI-1 inhibitor activity,CN1[C@H]2CCC[C@H]1CC(NC(=O)c1nn(C)c3ccccc13)C2.Cl (some centres unmarked) [GRANISETRON HCl]
12,demonstrate PAI-1 inhibitor activity,C[C@H]1COc2c(C3(N)CC3)c(F)cc3c(=O)c(C(=O)O)cn1c23 [PAZUFLOXACIN]
13,demonstrate PAI-1 inhibitor activity,O=C1Nc2ccc(Cl)cc2[C@@](C#CC2CC2)(C(F)(F)F)O1 [EFAVIRENZ]
14,demonstrate PAI-1 inhibitor activity,C=C[C@@](C)(O)CC[C@H]1C(=C)C[C@H](O)[C@H]2C(C)(C)CCC[C@]12C [LARIXOL]
15,demonstrate PAI-1 inhibitor activity,O=c1c(O)c(-c2ccc(O)c(O)c2)oc2cc(O)ccc12 [NSC 407010]
16,demonstrate PAI-1 inhibitor activity,Cc1nc(C)c(Cl)c(O)c1Cl [CLOPIDOL]
17,demonstrate PAI-1 inhibitor activity,NC(=O)N1c2ccccc2CC(=O)c2ccccc21 [OXCARBAZEPINE]
18,demonstrate PAI-1 inhibitor activity,"O=C1c2ccc(O)c(O)c2C(=O)c2c(O)ccc(O)c21 [QUINALIZARIN, quinalizarin]"
19,demonstrate PAI-1 inhibitor activity,COc1ccccc1/C=C\C(=O)O [COUMARINIC ACID METHYL ETHER]
20,demonstrate PAI-1 inhibitor activity,O=c1cc(-c2cc(O)c(O)c(O)c2)oc2cc(O)cc(O)c12 [HIERACIN]
21,demonstrate PAI-1 inhibitor activity,O=C(O)c1cc(O)c2c(c1)[C@H]([C@H]1c3cc(C(=O)O)cc(O)c3C(=O)c3c(O[C@@H]4O[C@H](CO)[C@@H](O)[C@H](O)[C@H]4O)cccc31)c1cccc(O[C@@H]3O[C@H](CO)[C@@H](O)[C@H](O)[C@H]3O)c1C2=O [SENNOSIDE A]
22,demonstrate PAI-1 inhibitor activity,O=C1C=C2CC3(O)COc4c(ccc(O)c4O)C3=C2C=C1O (centres unmarked) [HEMATEIN]
23,demonstrate PAI-1 inhibitor activity,O=c1c(O)cc([C@H]2Oc3cc(O)cc(O)c3C[C@H]2O)cc2c([C@H]3Oc4cc(O)cc(O)c4C[C@H]3O)cc(O)c(O)c12 [THEAFLAVIN]
